The values below come from PMC1931592 (BMC Pharmacology, 2007).

Entries after “also recorded” stand apart in the source; their conditions may differ.

What all share (type): biochemical
Test [1] deals with T1, recombinant human caspase-9 (Homo sapiens, UniProt P55211).
T1 sequence (P55211 140-315 limits assumed): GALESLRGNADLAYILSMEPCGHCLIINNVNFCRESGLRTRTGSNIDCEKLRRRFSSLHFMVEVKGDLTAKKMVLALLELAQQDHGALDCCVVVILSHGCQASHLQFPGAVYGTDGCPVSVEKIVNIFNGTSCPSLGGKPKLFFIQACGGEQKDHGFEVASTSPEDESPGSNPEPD
T1 sequence (P55211 331-416 limits assumed): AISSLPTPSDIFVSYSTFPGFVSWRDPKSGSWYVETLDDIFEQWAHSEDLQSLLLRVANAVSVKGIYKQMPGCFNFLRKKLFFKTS
Description: Ac-DNLD-MCA and Ac-DEVD-MCA cleavage assay, caspase-9. Particulars: 200 μM substrate, 37°C, MCA liberation. The method, then: (§1) To characterize the potency and selectivity of Ac-DNLD-MCA for caspases-3, -7, -8, and -9, in vitro caspase activity assays were performed. One unit (the amount of enzyme that cleaves 1 nmol of substrate per hr) of each active recombinant human caspase was added to a reaction mixture containing 200 μM Ac-DNLD-MCA or Ac-DEVD-MCA in assay buffer (100 mM NaCl, 50 mM HEPES, 10 mM DTT, 1 mM EDTA, 10% glycerol, and 0.1% CHAPS, pH 7.4). Then, the liberation of MCA was monitored continuously at 37°C using a 96-well plate reader Wallace 1420 ARVOsx (PerkinElmer) with an excitation wavelength of 390 nm and an emission wavelength of 460 nm.

The target in test [2] is T2, substituted (S209A) caspase-3 (Homo sapiens, UniProt P42574, S209A).
T2 construct: Active caspase-3 was generated by coexpression of HA-p17 and HA-p12 (wild type or mutant) subunits in vitro; (position 176–208, antisense); made in house
T2 sequence (P42574 29-175 limits assumed): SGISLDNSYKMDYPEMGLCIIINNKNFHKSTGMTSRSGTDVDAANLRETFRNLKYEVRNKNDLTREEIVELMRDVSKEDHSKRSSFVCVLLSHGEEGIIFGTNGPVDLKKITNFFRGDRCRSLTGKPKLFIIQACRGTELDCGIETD
T2 sequence (P42574 176-277 S209A limits assumed): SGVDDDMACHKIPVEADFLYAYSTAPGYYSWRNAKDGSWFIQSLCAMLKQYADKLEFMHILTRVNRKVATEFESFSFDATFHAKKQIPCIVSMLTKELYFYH
The test can be described thus: Cleavage assay with substituted (S209A) caspase-3 versus wild-type. The following applies: S209A versus wild-type caspase-3. The method, then:
as §1
Site-directed mutagenesis of p12 subunit (S209A) was introduced using PCR. The following primers were used for the preparation of the mutant, 5'-[…] TGACATG-3' (position 176–208, sense) and 5'-[…]-3' (position 176–208, antisense); 5'-[…]-3' (position 209–277, sense) and 5'-[…]-3' (position 209–277, antisense). The mutated site (Ser209→Ala) was shown in bold letter. After each fragments were amplified and ligated, they were tagged with HA and subcloned into pcDNA3 B (Invitrogen) at the EcoRV site. After comfirming the sequences, the inserts were excited by XhoI digestion and recloned into the XhoI site of pURE4 (Post Genome Institute Co., Ltd.) […]

For test [3], the target named is T3, recombinant human caspase-8 (Homo sapiens, UniProt Q14790).
T3 construct: each active recombinant human caspase was incubated; purchased Calbiochem
T3 sequence (Q14790 217-374 limits assumed): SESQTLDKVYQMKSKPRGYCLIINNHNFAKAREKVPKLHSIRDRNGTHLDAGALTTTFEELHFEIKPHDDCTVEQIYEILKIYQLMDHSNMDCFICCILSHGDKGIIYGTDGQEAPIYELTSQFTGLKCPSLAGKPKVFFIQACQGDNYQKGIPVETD
T3 sequence (Q14790 385-479 limits assumed): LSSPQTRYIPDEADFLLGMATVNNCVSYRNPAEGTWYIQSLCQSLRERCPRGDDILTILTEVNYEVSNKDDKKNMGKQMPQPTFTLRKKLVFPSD
The test can be described thus: Ac-DNLD-MCA and Ac-DEVD-MCA cleavage assay, caspase-8. The following applies: 200 μM substrate, 37°C, MCA liberation. The procedure:
as §1

Test [4] deals with T4, recombinant human caspase-7 (Homo sapiens, UniProt P55210).
T4 construct: each active recombinant human caspase was incubated; purchased Calbiochem
T4 sequence (P55210 24-198 limits assumed): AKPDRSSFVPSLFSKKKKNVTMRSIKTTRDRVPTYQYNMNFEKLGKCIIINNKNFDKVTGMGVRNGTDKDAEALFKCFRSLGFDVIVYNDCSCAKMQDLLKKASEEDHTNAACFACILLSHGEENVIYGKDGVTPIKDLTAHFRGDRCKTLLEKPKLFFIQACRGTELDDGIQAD
T4 sequence (P55210 207-303 limits assumed): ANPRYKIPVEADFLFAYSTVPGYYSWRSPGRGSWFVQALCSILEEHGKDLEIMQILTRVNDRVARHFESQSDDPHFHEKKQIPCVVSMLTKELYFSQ
The test can be described thus: Ac-DNLD-MCA and Ac-DEVD-MCA cleavage assay, caspase-7. The following applies: 200 μM substrate, 37°C, MCA liberation. The method, then: as §1

With Ac-DEVD-MCA, in test [1], the “cleavage of fluorometric substrate by caspase-9 (in words)” value is “able to cleave”. Also, the “cleavage of substrate by S209A caspase-3 compared with wild-type (in words)” value in test [2] is listed as “virtually no effect; also recorded: as efficient as the wild-type”. Further, the “cleavage of fluorometric substrate by caspase-8 (in words)” value in test [3] is given as “able to cleave”. Further, in test [4], the “cleavage of fluorometric substrate by caspase-7 (in words)” value is given as “able to cleave”.
